Values belong to the molecule of their own block, whether it stands above or below them.
Legend:
Format in all cases: biochemical
[1] = system: cellulase; experiment: Viscosity of guar fluid with cellulase and deactivator at 22° C. (Examples 3-7); details: 200 ppm cellulase; for degradation of the guar: 22° C. (FIG. 4)
Protocol: (§1) The following example formulations were prepared by adding a desired amount of cellulase and then a deactivator to water. The polymer was hydrated in the mixed water with a Waring blender mixing at 1000-3000 rpm for 15 mins.
The viscosities of Formulations 1-6 were measured immediately after mixing. To measure the viscosity of the solutions, 12 mL samples were loaded into a rheometer cup in a Bohlin rheometer with a C25 configuration.
The viscosities of Formulations 1-4 were measured immediately after mixing. To measure the viscosity of the solutions, 12 mL samples were loaded into a rheometer cup in a Bohlin rheometer with a C25 configuration.
The viscosities of Formulations 1-5 were measured immediately after mixing. To measure the viscosity of the solutions, 12 mL samples were loaded into a rheometer cup in a Bohlin rheometer with a C25 configuration.

[2] = system: cellulase; experiment: Viscosity of guar solution with cellulase and deactivator over time at 50° C. and 80° C. (Example 1); details: 200 ppm cellulase, 3.6 g/L guar
Protocol: as §1
Formulation 3 was prepared by adding 200 ppm cellulase and 0.6 g/L of 1,5-dihydroxynaphthalene from Sigma Aldrich to tap water. Then 3.6 g/L guar was added to the fluid.
Formulation 4 was prepared by adding 200 ppm cellulase and 0.24 g/L of 1,5-dihydroxynaphthalene from Sigma Aldrich to tap water. Then 3.6 g/L guar was added to the fluid.
To measure the viscosity of the solutions, 12 mL samples were loaded into a rheometer cup in a Bohlin rheometer with a C25 configuration. The rheology tests were performed at a shear rate of 10 s^−1 and temperatures of 50° C. and 80° C., the results of which are shown in FIG. 1 and FIG. 2, respectively.

[3] = system: cellulase; experiment: Viscosity of xanthan fluid with cellulase and deactivator at 22° C. (Example 8); details: 0.6 g/L deactivator, 200 ppm cellulase, 3.6 g/L xanthan
Protocol: as §1
Formulation 3 was prepared by adding 200 ppm cellulase, 0.6 g/L of 1,5-dihydroxynaphthalene, and 3.6 g/L xanthan to tap water.
(§2) The viscosities of Formulations 1-3 were measured immediately after mixing. To measure the viscosity of the solutions, 12 mL samples were loaded into a rheometer cup in a Bohlin rheometer with a C25 configuration.

[4] = system: cellulase; experiment: Viscosity of carboxymethyl cellulose fluid with cellulase and deactivator at 22° C. (Example 9); details: 0.6 g/L deactivator, 200 ppm cellulase, 3.6 g/L carboxymethyl cellulose
Protocol: as §1
Formulation 3 was prepared by adding 200 ppm cellulase, 0.6 g/L of 1,5-dihydroxynaphthalene, and 3.6 g/L carboxymethyl cellulose to tap water.
as §2

[5] = system: bacterial and/or fungal cells; experiment: Viscosity of guar in water containing 11,000,000 CFU bacterial and/or fungal cells (Example 2); details: 0.4 g/L deactivator, 3.6 g/L guar
Protocol: Formulation 2 was prepared by adding 3.6 g/L guar to water containing 11,000,000 CFU bacterial and/or fungal cells.
Formulation 3 was prepared by adding 0.4 g/L of tannic acid to Formulation 2.
as §2

SMILES: Oc1cccc2cccc(O)c12 [1,8-dihydroxynaphthalene]
- degradation of the biomaterial ([1]; 0.12 g/L deactivator, 3.6 g/L guar, 22° C. (FIG. 6)): impeded
- viscosity compared with Formulation 1 (no cellulase) ([1]; 0.12 g/L deactivator, 3.6 g/L guar, shear rate 1, 10, 100 s^-1, 22° C. (FIG. 6)): similar

SMILES: Oc1cc2ccccc2cc1O [2,3-dihydroxynaphthalene]
- degradation of the biomaterial ([1]; 0.36 g/L deactivator, 3.6 g/L guar, 22° C. (FIG. 6)): impeded
- viscosity compared with Formulation 1 (no cellulase) ([1]; 0.36 g/L deactivator, 3.6 g/L guar, shear rate 1, 10, 100 s^-1, 22° C. (FIG. 6)): similar

SMILES: Nc1cccc2c(O)cccc12 [5-amino-1-naphthol]
- degradation of the biomaterial ([1]; 0.96 g/L deactivator, 3.6 g/L guar, 22° C. (FIG. 7)): impeded
- viscosity compared with Formulation 1 (no cellulase) ([1]; 0.96 g/L deactivator, 3.6 g/L guar, shear rate 1, 10, 100 s^-1, 22° C. (FIG. 7)): similar

SMILES: Oc1ccc2c(c1)OCO2 [sesamol]
- degradation of the biomaterial ([1]; 0.36 g/L deactivator, 3.6 g/L guar, 22° C. (FIG. 7)): impeded
- viscosity compared with Formulation 1 (no cellulase) ([1]; 0.36 g/L deactivator, 3.6 g/L guar, shear rate 1, 10, 100 s^-1, 22° C. (FIG. 7)): similar

SMILES: O=C(OC[C@H]1O[C@@H](OC(=O)c2cc(O)c(O)c(OC(=O)c3cc(O)c(O)c(O)c3)c2)[C@H](OC(=O)c2cc(O)c(O)c(OC(=O)c3cc(O)c(O)c(O)c3)c2)[C@@H](OC(=O)c2cc(O)c(O)c(OC(=O)c3cc(O)c(O)c(O)c3)c2)[C@@H]1OC(=O)c1cc(O)c(O)c(OC(=O)c2cc(O)c(O)c(O)c2)c1)c1cc(O)c(O)c(OC(=O)c2cc(O)c(O)c(O)c2)c1 [tannic acid]
- degradation of the biomaterial by the cellulase enzymes ([1]; 0.4 g/L deactivator, 3.6 g/L guar, 22° C. (FIG. 5)): impeded
- viscosity compared with Formulation 1 (no cellulase) ([1]; 0.4 g/L deactivator, 3.6 g/L guar, shear rate 1, 10, 100 s^-1, 22° C. (FIG. 5)): similar
- degradation of the guar biomaterial by the enzyme ([5]; water with 11,000,000 CFU bacterial and/or fungal cells, 22° C. (FIG. 3)): inhibited
- viscosity compared with Formulation 1 (guar in tap water) ([5]; water with 11,000,000 CFU cells, shear rate 1, 10, 100 s^-1, 22° C. (FIG. 3)): similar

SMILES: COc1cc(C(=O)O)ccc1O [vanillic acid]
- degradation of the guar ([1]; 0.96 g/L deactivator, 3.6 g/L guar): impeded
- viscosity compared with Formulation 1 (no cellulase) ([1]; 0.96 g/L deactivator, 3.6 g/L guar, shear rate 1, 10, 100 s^-1, 22° C. (FIG. 4)): similar

Second part, the molecule after the results:

- degradation of the biomaterial ([1]; 0.6 g/L 1,2,3-trimethoxybenzene, 3.6 g/L guar, 22° C. (FIG. 8)): impeded
- viscosity compared with Formulation 1 (no cellulase) ([1]; 0.6 g/L 1,2,3-trimethoxybenzene, 3.6 g/L guar, shear rate 1, 10, 100 s^-1, 22° C. (FIG. 8)): similar
SMILES: COc1cccc(OC)c1OC [1,2,3-trimethoxybenzene]

- degradation of the biomaterial ([1]; 0.6 g/L 1,3,5-trimethoxybenzene, 3.6 g/L guar, 22° C. (FIG. 8)): impeded
- viscosity compared with Formulation 1 (no cellulase) ([1]; 0.6 g/L 1,3,5-trimethoxybenzene, 3.6 g/L guar, shear rate 1, 10, 100 s^-1, 22° C. (FIG. 8)): similar
SMILES: COc1cc(OC)cc(OC)c1 [1,3,5-trimethoxybenzene]

- degradation of the biomaterial ([1]; 0.6 g/L deactivator, 3.6 g/L guar, 22° C. (FIG. 6)): impeded
- viscosity compared with Formulation 1 (no cellulase) ([1]; 0.6 g/L deactivator, 3.6 g/L guar, shear rate 1, 10, 100 s^-1, 22° C. (FIG. 6)): similar
- degradation rate of the cellulase enzymes ([2]; 0.6 g/L deactivator, tap water, shear rate 10 s^-1, 50° C. and 80° C. (FIG. 1, 2)): reduced
- dependence of viscosity reduction on deactivator concentration ([2]; 0.6 g/L vs 0.24 g/L deactivator, 50° C. (FIG. 1)): the slower the viscosity was reduced
- viscosity compared with the formulation without deactivator ([2]; 50° C., shear rate 10 s^-1 (FIG. 1)): higher
- viscosity compared with the formulation without deactivator ([2]; 80° C., shear rate 10 s^-1 (FIG. 2)): higher
- degradation of the biomaterial ([3]; 22° C. (FIG. 9)): impeded
- viscosity compared with Formulation 1 (no cellulase) ([3]; shear rate 1, 10, 100 s^-1, 22° C. (FIG. 9)): similar
- degradation of the biomaterial ([4]; 22° C. (FIG. 10)): impeded
- viscosity compared with Formulation 1 (no cellulase) ([4]; shear rate 1, 10, 100 s^-1, 22° C. (FIG. 10)): similar
SMILES: Oc1cccc2c(O)cccc12 [1,5-dihydroxynaphthalene]

- degradation of the guar ([1]; 8 mL/L gallic acid, 3.6 g/L guar): impeded
- viscosity compared with Formulation 1 (no cellulase) ([1]; 8 mL/L gallic acid, 3.6 g/L guar, shear rate 1, 10, 100 s^-1, 22° C. (FIG. 4)): similar
SMILES: O=C(O)c1cc(O)c(O)c(O)c1 [gallic acid]

- degradation of the guar ([1]; 8 mL/L deactivator, 6 g/L guar): impeded
- viscosity compared with Formulation 1 (no cellulase) ([1]; 8 mL/L deactivator, 6 g/L guar, shear rate 1, 10, 100 s^-1, 22° C. (FIG. 4)): similar
SMILES: COc1ccccc1O [guaiacol]

- degradation of the guar ([1]; 8 mL/L salicylic acid, 3.6 g/L guar): impeded
- viscosity compared with Formulation 1 (no cellulase) ([1]; 8 mL/L salicylic acid, 3.6 g/L guar, shear rate 1, 10, 100 s^-1, 22° C. (FIG. 4)): similar
SMILES: O=C(O)c1ccccc1O [salicylic acid]
